The values below come from patent US20040147500A1, “Injectable galenic formulation for use in a diagnosis or a photodynamic therapy and method for preparing same” (priority 2001, published 2004).

The subject of data set [1] is rats (Sprague Dawley), rabbits (New-Zealand albino), monkeys (Cynomolgus). It is filed as in vivo. The settings on record: intravenous, injection speeds up to 4 ml/min.
Description: Male rats (Sprague Dawley): 6 to 12 animals for each dose (2×5, 2×10 and 2×20 mg/kg. The product was injected intravenously into the caudal vein.
Rabbits (New-Zealand albino rabbits): 5 animals received the dose of 5 mg/kg. The product was injected three times intravenously, once intra-arterially and once perivenously.
Monkeys (Cynomolgus, of a weight varying from 2.5 to 3.2 kg): 6 to 10 animals of each sex for each dose (1, 2, 5 and 6 mg/kg). The product was injected intravenously into the saphenous vein or into the cephalic vein, once each day during 14 days.
Monkeys (Cyonomolgus of a weight varying from 2.25 to 4.7 kg): 3 to 6 animals for each dose (2 and 5 mg/kg). The product was injected intravenously into the saphenous vein or into the cephalic vein.
The assessment of the animals was made on the basis of clinical signs, biological analyses carried out on the blood and on the urine, cardiovascular examinations and of histopathological examinations.
Data set [2] relates to mice (OF), rats (Sprague Dawley), monkeys (Cynomolgus). It is filed as in vivo. As to conditions: intravenous, provided the injections were made slowly.
Description: 1—Mice (OF, of a weight varying from 25 to 35 grams): 10 animals of each sex for each dose (2×25, 2×50, 2×75 and 1×100 mg/kg).The product was injected into the caudal vein.
2—Rats (Sprague Dawley, of a weight varying from 150 to 230 grams): 4 to 10 animals of each sex for each dose (from 4 to 200 mg/kg). The product was injected into the caudal vein.
3—Monkeys (Cynomolgus of a weight varying from 1.8 kg to 3.5 kg): 1 animal of each sex for each dose (8, 16 and 24 mg/kg). The product was injected into the saphenous vein or into the cephalic vein once a day during 7 days.
The assessment of the animals was made on the basis of clinical signs, biological analyses carried out on the blood and the urine and of histopathological examinations.
The conditions of data set [3]: in vivo; cited from earlier work.

As for “Pd-bacteriopheophorbide a [Pd-Bpheide a]”, the “tolerance in toxicity studies” value in data set [1] and in data set [2] was “well tolerated” in each case. Moreover, in data set [3], the “cutaneous and ocular photosensitisation” value is reported as “no or little cutaneous photosensitisation”.
